The results in this text go back to PMC7811808, “Design, synthesis, and biological evaluation of novel 5,6,7-trimethoxy quinolines as potential anticancer agents and tubulin polymerization inhibitors” (Iranian Journal of Basic Medical Sciences, 2020).

Where two headings read alike, the source gives them in different places.

One data set relates to A2780/RCIS. In words: MTT antiproliferative activity assay. The data set is classed as cell-based. The note with it: Homo sapiens, read-out: IC50 A2780/RCIS. On the procedure: (§1) The MTT assay was done by seeding 5.0×10^3 human cancer cells or normal cells per well in 96-well plates ([34]-[36]). Following overnight incubation of the cells in 5% CO2 at 37 °C, culture medium of each well was exchanged with medium having reference anti-cancer agent CA-4 as well as different concentrations of synthesized compounds and RPMI (no drug) negative control and cells were incubated 48 hr. Then MTT solution (25 μl, 4 mg ml ^-1) was added to each well and the cells were incubated at 37 °C (for 3 hr). Finally, formazan crystals were dissolved in DMSO (100 μl) and plates were read in a plate reader (Synergy H4, USA) at 540 nm. The cytotoxic activity of the synthesized compounds was evaluated against different human cancer cell lines including […]-7 and MCF-7/MX, and normal cells by MTT assay. Combretastatin A-4 (CA-4) was used as the positive control.
In general terms: Formazan colour is commonly taken as a measure of viable cells.

Another data set relates to A2780. Put plainly: MTT antiproliferative activity assay. Type of data set: cell-based. The following applies: Homo sapiens, 48 hr. On the procedure:
as §1

A further data set relates to MCF-7/MX. In words: MTT antiproliferative activity assay. Type of data set: cell-based. The following applies: Homo sapiens, MCF7/MX, read-out: IC50 MCF-7/MX. On the procedure: as §1
The subject of the next data set is MCF-7. Put plainly: MTT antiproliferative activity assay. Type of data set: cell-based. The note with it: Homo sapiens, MCF7, 48 hr. Here is the method:
as §1

Another data set deals with HUVEC. Put plainly: MTT assay on normal cells. Type of data set: cell-based. The note with it: Homo sapiens, 48 hr. Here is the method: as §1
Data set [1] concerns A2780, A2780/RCIS, MCF-7 and MCF-7/MX. Put plainly: MTT assay, statements over all four cancer cell lines. The data set is classed as cell-based. The note with it: Homo sapiens, range over four cell lines, read-out: IC50 values range against all four human cancer cells. On the procedure: as §1

On to `COc1ccc(/C=C\c2cc(OC)c(OC)c(OC)c2)cc1O` [CA-4, Combretastatin A-4, reference compound], for which the IC50 with A2780/RCIS (A2780, 48 h) was determined as 0.229 ± 0.11 µM; in the data set on A2780, 0.249 ± 0.091 µM; in the data set with MCF-7/MX (48 h) it was 1.49 ± 0.27 µM; in the data set on MCF-7, 0.438 ± 0.15 µM; in the data set on HUVEC, 0.565 ± 0.26 µM.
One may read the melting point as the temperature of the solid-liquid transition. Molecule `COc1ccc(Nc2cc(C)nc3cc(OC)c(OC)c(OC)c23)cc1` [Compound 7a, 5,6,7-Trimethoxy-N-(4-methoxyphenyl)-2-methylquinolin-4-amine] had a melting point of 191 to 194 °C. In the data set with A2780/RCIS (A2780, MTT, 48 hr), the IC50 was determined as 29.9 ± 2.87 µM. In the data set with A2780, the IC50 was found to be 16.4 ± 2.13 µM. Moreover, the IC50 in the data set with MCF-7/MX (MTT, 48 hr) is 65.9 ± 4.42 µM. For the same molecule, in the data set on MCF-7, the IC50 was found to be 55.3 ± 5.37 µM. Besides, in the data set on HUVEC, the IC50 came out at 55.9 ± 3.87 µM.
Consider `COc1ccc(Nc2cc(C)nc3cc(OC)c(OC)c(OC)c23)cc1OC` [Compound 7b, N-(3,4-dimethoxyphenyl)-5,6,7-trimethoxy-2-methylquinolin-4-amine], for which the melting point lay in the range of 182 to 185 °C. Also, the IC50 with A2780/RCIS (A2780, MTT, 48 hr) was determined as 51.5 ± 4.86 µM. Moreover, the IC50 in the data set with A2780 stood at 27.1 ± 3.25 µM. Moreover, the IC50 with MCF-7/MX (MTT, 48 hr) was found to be 62.8 ± 5.27 µM. For the same molecule, the IC50 in the data set on MCF-7 stood at 63.7 ± 4.35 µM. In addition, the IC50 with HUVEC is over 100 µM.
`COc1cc(Nc2cc(C)nc3cc(OC)c(OC)c(OC)c23)cc(OC)c1OC` [Compound 7c, 5,6,7-Trimethoxy - 2-methyl - -N-(3,4,5-methoxyphenyl) quinolin-4-amine] displayed a melting point of 175 to 178 °C. The IC50 in the data set with A2780/RCIS (A2780, MTT, 48 hr) is over 100 µM. In addition, the IC50 in the data set on A2780 turned out to be 80.2 ± 5.23 µM. Besides, in the data set with MCF-7/MX (MTT, 48 hr), the IC50 was 69.8 ± 4.85 µM. Further, in the data set with MCF-7, the IC50 is over 100 µM. Further, in the data set with HUVEC, the IC50 was over 100 µM.
For `COc1ccc(Nc2cc(C)nc3cc(OC)c(OC)c(OC)c23)cc1O` [Compound 7d, 2-Methoxy-5-((5,6,7-trimethoxy-2-methylquinolin-4-yl)amino)phenol], the melting point was in the range of 182 to 184 °C. The IC50 in the data set with A2780/RCIS (A2780, MTT, 48 hr) stood at 44.7 ± 2.76 µM. In addition, the IC50 in the data set with A2780 stood at 29.6 ± 2.98 µM. For the same molecule, the IC50 in the data set with MCF-7/MX (MTT, 48 hr) was determined as 78.2 ± 5.37 µM. In addition, the IC50 with MCF-7 stood at 53.6 ± 3.66 µM. Also, the IC50 in the data set with HUVEC stood at 62.7 ± 5.42 µM.
`COc1cc2nc(C)cc(Nc3ccccc3Oc3ccccc3)c2c(OC)c1OC` [Compound 7g, 5,6,7-Trimethoxy-2-methyl-N-(2-phenoxyphenyl)quinolin-4-amine] yielded a melting point of 150 to 153 °C. Also, in the data set on A2780/RCIS (A2780, MTT, 48 hr), the IC50 was determined as 10.1 ± 2.25 µM. For the same molecule, the IC50 in the data set with A2780 was 12.1 ± 2.17 µM. For the same molecule, in the data set with MCF-7/MX (MTT, 48 hr), the IC50 was determined as 16.3 ± 2.39 µM. Further, the IC50 in the data set with MCF-7 was determined as 35.8 ± 3.29 µM. Besides, in the data set on HUVEC, the IC50 came out at 27.7 ± 2.63 µM. Also, in data set [1], the IC50 lay in the range of 5.02 to 35.8 µM.
As for `COc1cc2nc(/C=C/c3ccccc3)cc(Cl)c2c(OC)c1OC` [Compound 9a, E-4-Chloro-5,6,7-trimethoxy-2-styrylquinoline], the melting point lay in the range of 110 to 113 °C. Moreover, the IC50 with A2780/RCIS (A2780, MTT, 48 hr) amounted to 46.2 ± 3.57 µM. In addition, the IC50 in the data set on A2780 turned out to be 30.5 ± 3.22 µM. For the same molecule, the IC50 in the data set with MCF-7/MX (MTT, 48 hr) stood at 64.6 ± 5.29 µM. For the same molecule, the IC50 in the data set with MCF-7 amounted to 63.7 ± 5.27 µM. Moreover, the IC50 in the data set on HUVEC worked out at 74 ± 5.95 µM.
`COc1cc2nc(/C=C/c3ccc(C)cc3)cc(Cl)c2c(OC)c1OC` [Compound 9b, E-4-Chloro-5,6,7-trimethoxy-2-(4-methylstyryl)quinoline] registered a melting point of 153 to 155 °C. In addition, the IC50 with A2780/RCIS (A2780, MTT, 48 hr) is over 100 µM. In addition, the IC50 in the data set with A2780 is over 100 µM. Also, in the data set with MCF-7/MX (MTT, 48 hr), the IC50 was over 100 µM. In addition, in the data set with MCF-7, the IC50 is over 100 µM. In addition, the IC50 with HUVEC was over 100 µM.
`COc1cc2nc(/C=C/c3ccc(F)cc3)cc(Cl)c2c(OC)c1OC` [Compound 9c, E-4-Chloro-5,6,7-trimethoxy-2-(4-fluorostyryl)quinoline] had a melting point of 173 to 176 °C. The IC50 in the data set on A2780/RCIS (A2780, MTT, 48 hr) was over 100 µM. In addition, the IC50 in the data set with A2780 is over 100 µM. The IC50 in the data set on MCF-7/MX (MTT, 48 hr) was over 100 µM. Also, the IC50 in the data set with MCF-7 was over 100 µM. Further, in the data set with HUVEC, the IC50 is over 100 µM.
`COc1ccc(/C=C/c2cc(Cl)c3c(OC)c(OC)c(OC)cc3n2)cc1` [Compound 9d, E-4-Chloro-5,6,7-trimethoxy-2-(4-methoxystyryl)quinoline]: the IC50 in the data set with A2780/RCIS (A2780, MTT, 48 hr) stood at 33.8 ± 3.48 µM; in the data set with A2780, 39.9 ± 3.74 µM; with MCF-7/MX (MTT, 48 hr) it was 44.1 ± 3.57 µM; in the data set with MCF-7, 42.8 ± 3.48 µM; in the data set on HUVEC, 96.2 ± 5.38 µM.
`COc1ccc(/C=C/c2cc(Cl)c3c(OC)c(OC)c(OC)cc3n2)cc1OC` [Compound 9e, E-4-Chloro-5,6,7-trimethoxy-2-(3,4-dimethoxystyryl)quinoline] displayed a melting point of 122 to 124 °C. Besides, in the data set on A2780/RCIS (A2780, MTT, 48 hr), the IC50 was over 100 µM. Moreover, the IC50 with A2780 is over 100 µM. Moreover, the IC50 with MCF-7/MX (MTT, 48 hr) is over 100 µM. The IC50 with MCF-7 was over 100 µM. Besides, in the data set with HUVEC, the IC50 is over 100 µM.
In turn, `COc1cc(/C=C/c2cc(Cl)c3c(OC)c(OC)c(OC)cc3n2)cc(OC)c1OC` [Compound 9f, E-4-Chloro-5,6,7-trimethoxy-2-(3,4,5-trimethoxystyryl)quinoline] returned a melting point of 163 to 165 °C. Besides, in the data set with A2780/RCIS (A2780, MTT, 48 hr), the IC50 is 11.7 ± 2.63 µM. Also, in the data set on A2780, the IC50 amounted to 47.9 ± 4.25 µM. In the data set with MCF-7/MX (MTT, 48 hr), the IC50 is 28 ± 2.64 µM. For the same molecule, in the data set on MCF-7, the IC50 is over 100 µM. The IC50 in the data set with HUVEC is over 100 µM.
`COc1cc2nc(/C=C/c3ccc([N+](=O)[O-])cc3)cc(Cl)c2c(OC)c1OC` [Compound 9g, E-4-Chloro-5,6,7-trimethoxy-2-(4-nitrostyryl)quinoline] registered a melting point of 162 to 164 °C. Further, the IC50 in the data set on A2780/RCIS (A2780, MTT, 48 hr) is over 100 µM. Also, the IC50 with A2780 is over 100 µM. Also, the IC50 in the data set on MCF-7/MX (MTT, 48 hr) was over 100 µM. In addition, the IC50 in the data set with MCF-7 is over 100 µM. Also, the IC50 in the data set with HUVEC is over 100 µM.
